Reference: patent US9839627B2, “Methods of treating fragile X associated disorders, ADHD, and autism spectrum disorder” (Neurovance, Inc., priority 2013, dated 2017)

Assays:
[1] = tested on: individuals with FXS; conditions: reported trials; failures due to aggravation of irritable, moody/perseverative and aggressive behaviors; cited from earlier work
[2] = biological target: dopamine reuptake (DA) (Homo sapiens, UniProt Q01959); assay: dopamine reuptake inhibition; format: biochemical; conditions: fraction of the potency towards NE reuptake
[3] = biological target: T1, monoamine oxidase A (MAO A) (Homo sapiens, UniProt P21397); assay: metabolic pathway
T1 sequence (P21397 1-527): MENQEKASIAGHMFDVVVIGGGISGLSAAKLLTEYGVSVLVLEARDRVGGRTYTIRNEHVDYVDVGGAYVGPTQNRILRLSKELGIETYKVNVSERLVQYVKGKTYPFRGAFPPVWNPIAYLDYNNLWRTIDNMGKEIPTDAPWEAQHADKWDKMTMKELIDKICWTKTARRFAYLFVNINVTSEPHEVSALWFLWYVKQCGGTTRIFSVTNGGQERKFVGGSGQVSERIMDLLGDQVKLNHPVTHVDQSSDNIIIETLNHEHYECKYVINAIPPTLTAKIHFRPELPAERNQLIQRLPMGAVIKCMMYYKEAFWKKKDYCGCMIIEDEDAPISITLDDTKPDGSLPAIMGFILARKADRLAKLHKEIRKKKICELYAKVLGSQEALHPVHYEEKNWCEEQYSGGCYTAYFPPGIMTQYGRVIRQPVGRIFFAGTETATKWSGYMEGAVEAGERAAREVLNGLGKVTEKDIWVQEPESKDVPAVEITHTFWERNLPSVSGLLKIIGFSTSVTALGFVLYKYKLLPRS

[4] = biological target: serotonin reuptake (5-HT) (Homo sapiens, UniProt P31645); assay: serotonin reuptake inhibition; format: biochemical; conditions: fraction of the potency towards NE reuptake
[5] = biological target: norepinephrine reuptake (NE) (Homo sapiens, UniProt P23975); assay: norepinephrine reuptake inhibition; format: biochemical; conditions: unbalanced triple reuptake inhibitor; compared with DA and 5-HT reuptake
Chain of norepinephrine reuptake (NE) (P23975 whole entry): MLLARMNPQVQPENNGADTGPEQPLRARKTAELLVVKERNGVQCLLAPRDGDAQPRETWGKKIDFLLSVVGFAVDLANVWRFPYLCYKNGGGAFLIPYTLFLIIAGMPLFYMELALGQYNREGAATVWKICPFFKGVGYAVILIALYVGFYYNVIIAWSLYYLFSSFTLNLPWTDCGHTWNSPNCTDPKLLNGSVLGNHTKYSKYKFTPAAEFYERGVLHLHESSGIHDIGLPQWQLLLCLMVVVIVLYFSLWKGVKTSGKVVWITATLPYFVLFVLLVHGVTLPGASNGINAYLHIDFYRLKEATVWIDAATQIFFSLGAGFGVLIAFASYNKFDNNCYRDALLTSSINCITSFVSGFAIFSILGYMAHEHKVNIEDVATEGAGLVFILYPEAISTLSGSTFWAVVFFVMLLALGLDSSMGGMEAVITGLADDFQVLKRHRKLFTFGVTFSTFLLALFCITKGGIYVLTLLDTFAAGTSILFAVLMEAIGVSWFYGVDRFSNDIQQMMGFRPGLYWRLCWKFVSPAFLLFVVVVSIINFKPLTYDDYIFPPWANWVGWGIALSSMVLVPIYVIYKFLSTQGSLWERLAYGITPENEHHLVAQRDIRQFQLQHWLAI

Chain of serotonin reuptake (5-HT) (P31645 whole entry): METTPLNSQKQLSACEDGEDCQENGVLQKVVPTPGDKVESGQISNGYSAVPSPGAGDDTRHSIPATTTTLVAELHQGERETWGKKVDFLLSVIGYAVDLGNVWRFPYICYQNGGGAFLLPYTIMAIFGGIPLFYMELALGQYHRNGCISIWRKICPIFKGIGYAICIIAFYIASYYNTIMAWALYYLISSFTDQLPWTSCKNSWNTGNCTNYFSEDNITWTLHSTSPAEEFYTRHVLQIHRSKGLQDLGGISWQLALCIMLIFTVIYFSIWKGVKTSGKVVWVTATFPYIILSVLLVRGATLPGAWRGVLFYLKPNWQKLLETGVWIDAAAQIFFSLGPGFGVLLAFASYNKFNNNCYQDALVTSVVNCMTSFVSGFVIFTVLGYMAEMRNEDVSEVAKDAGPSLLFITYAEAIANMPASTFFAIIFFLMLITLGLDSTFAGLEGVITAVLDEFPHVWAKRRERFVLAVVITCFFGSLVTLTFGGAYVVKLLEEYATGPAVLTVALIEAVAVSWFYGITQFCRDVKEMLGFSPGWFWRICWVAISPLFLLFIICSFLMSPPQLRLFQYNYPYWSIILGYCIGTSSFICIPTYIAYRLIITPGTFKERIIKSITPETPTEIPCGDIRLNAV
Chain of dopamine reuptake (DA) (Q01959 whole entry): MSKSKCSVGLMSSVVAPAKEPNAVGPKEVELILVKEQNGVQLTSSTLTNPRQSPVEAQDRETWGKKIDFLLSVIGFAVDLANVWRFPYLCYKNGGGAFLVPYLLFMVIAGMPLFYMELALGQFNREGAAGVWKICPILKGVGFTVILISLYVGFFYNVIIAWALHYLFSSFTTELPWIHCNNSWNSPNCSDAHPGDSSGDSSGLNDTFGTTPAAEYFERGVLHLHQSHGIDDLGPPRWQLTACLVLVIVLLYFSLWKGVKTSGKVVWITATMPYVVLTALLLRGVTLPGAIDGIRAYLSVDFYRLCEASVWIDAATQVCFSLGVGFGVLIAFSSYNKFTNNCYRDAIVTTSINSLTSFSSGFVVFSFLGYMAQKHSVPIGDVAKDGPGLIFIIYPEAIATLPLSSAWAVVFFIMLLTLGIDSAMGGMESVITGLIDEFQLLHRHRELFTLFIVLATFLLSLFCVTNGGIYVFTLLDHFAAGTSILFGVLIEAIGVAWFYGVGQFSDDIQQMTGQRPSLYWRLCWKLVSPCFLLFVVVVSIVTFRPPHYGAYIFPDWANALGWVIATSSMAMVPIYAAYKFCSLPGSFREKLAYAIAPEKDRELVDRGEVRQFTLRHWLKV

SMILES	outcome of treatment in individuals with FXS [1]	potency towards dopamine reuptake relative to norepinephrine reuptake [2]	primary route of metabolism [3]	potency towards serotonin reuptake relative to norepinephrine reuptake [4]	relative potency towards norepinephrine reuptake [5]
O=C1CCc2ccc(OCCCCN3CCN(c4cccc(Cl)c4Cl)CC3)cc2N1 [Aripiprazole]	some individuals with FXS failed treatment	–	–	–	–
c1ccc2cc([C@]34CNC[C@H]3C4)ccc2c1 [(1R,5S)-1-(naphthalen-2-yl)-3-azabicyclo[3.1.0]hexane]	–	one-sixth	primarily metabolized by monoamine oxidase A (MAO A)	one-fourteenth	most potency
CNCC[C@@H](Oc1ccccc1C)c1ccccc1 [atomoxetine]	unsuccessful	–	–	–	–
